As usually defined, the LOAEL is the lowest tested level that showed an adverse finding. Usually LD50 stands for the dose expected to kill half of the subjects tested. Broadly, the NOAEL is the highest tested level that showed no adverse finding.

Several values for one entry are separate records, joined by “and”; a condition that tells them apart may be missing. Identical values can stand only once.

This is an account of results in EPA's ToxValDB 9.5.

The subject of series [1] is Rattus norvegicus.
Series [2] relates to Rattus norvegicus. The source holds these as a separate data set.
Series [3] deals with Mus musculus. Particulars: uterotrophic, Active.
In series [4] the test system is Rattus norvegicus. As to conditions: oral, gavage.
Series [5] relates to Rattus norvegicus. Particulars: for LD50 / LC50: acute.
In series [6] the test system is Rattus norvegicus. As to conditions: for LEL: uterotrophic, Active.
In another series the test system is Oryctolagus sp. Particulars: for LD50: acute, dermal; for NOAEL: duration: 24 days, oral, gavage, New Zealand.
For series [7], the system named is Mus musculus. As to conditions: acute; oral; gavage; Swiss-Webster.
Where [8] appears, read: duration: 3 days, injection, subcutaneous.
Setting [9] is: chronic, duration: 1 years, oral, blood pressure and body weight histopathological liver, kidney and spleen.
The mark [10] stands for this setting: Hershberger, duration: 10 days, oral, gavage, Sprague-Dawley, active + Androgenic + Negative + androgenic.
The mark [11] stands for this setting: reproduction developmental, oral, M/F, mortality and kidney lesions.
The mark [12] stands for this setting: subchronic, duration: 12 weeks, Inhalation, Long-Evans.
[13] abbreviates: subchronic, oral, drinking water, M/F, impaired renal function and increased liver and kidney weight.

On to `CC1CO1` (racemic) [(+/-)-1,2-Propylene oxide], for which the LOAEL amounted to 71 mg/m3 with Rattus norvegicus [1] (chronic, duration: 2 years, inhalation, intermittent, Epithelium: Unspecified) and 71 mg/m3 with Rattus norvegicus [2] (chronic, duration: 2 years, inhalation, M/F, nest-like infolds of the nasal respiratory epithelium).

In the series with Mus musculus [3] (duration: 3 days, injection, intraperitoneal), `CC(C)(c1cc(Cl)c(O)c(Cl)c1)c1cc(Cl)c(O)c(Cl)c1` [2,2',6,6'-Tetrachlorobisphenol A] showed an LEL of 20 mg/kg-day.

In turn, `Oc1ccc(C(c2ccc(O)cc2)C(Cl)(Cl)Cl)cc1` [2,2-Bis(4-hydroxyphenyl)-1,1,1-trichloroethane] returned an LEL with Mus musculus [3] (setting [8]) of 100 mg/kg-day.

In the case of `Cc1ccc(O)cc1C` [3,4-Dimethylphenol], the NOEL in the series on Rattus norvegicus [1] (chronic, duration: 8 months, oral, Cardiovascular system: Altered blood pressure + Organs, major: Lesions + Whole body: Decreased weight) stood at 1.4 mg/kg-day. In the series on Rattus norvegicus [2] (setting [9]), this molecule showed an LOAEL of 14 mg/kg-day and an NOEL of 1.4 mg/kg-day.

In the series with Mus musculus [3] (setting [8]), `O=C(O)c1ccc(O)cc1` [4-Hydroxybenzoic acid] showed an LEL of 5 mg/kg-day.

Turning to `CC(C)CCCCCCc1ccc(O)cc1` [4-Nonylphenol, branched], the NOEL with Rattus norvegicus [4] (short-term, duration: 28 days, M/F, Crj:CD, Deaths + Clinical Observation: Salivation, Urinary incontinence Abnormal estrus cycle + Hematology: Ret increase, RBC decrease, Plt increase…) was found to be 10 mg/kg-day. The molecule further displayed an LD50 in the series on Rattus norvegicus [5] (oral) of 1880 mg/kg. In addition, the NOAEL with Rattus norvegicus [5] (reproduction developmental, oral, diet, Sprague-Dawley) amounted to 15 mg/kg-day; in the series on Rattus norvegicus [5] (short-term, duration: 28 days, oral, diet, Crl:CD(SD) BR), 100 mg/kg-day; in the series on Rattus norvegicus [5] (subchronic, duration: 90 days, oral, diet, Sprague-Dawley), 50 mg/kg-day. Besides, the LEL was 190 mg/kg-day in the series on Rattus norvegicus [6] (duration: 3 days, oral) and 1000 mg/kg-day in the series with Mus musculus [3] (setting [8]).

In the case of `C#C[C@]1(O)CC[C@H]2[C@@H]3CCc4cc(O)ccc4[C@H]3CC[C@@]21C` [17alpha-Ethinylestradiol], the NOEL with Rattus norvegicus [4] (short-term, duration: 28 days, M/F, Crj:CD, Body Weight Changes: decrease + Food Consumption: decrease + Blood Chemistry: A/G decrease >0 Cho decrease 0 Alp increase, gamma-GTP …) is less than 0.01 mg/kg-day; in the series on Rattus norvegicus [6] (setting [10]), 10 mg/kg-day. Further, the LOEL in the series on Rattus norvegicus [6] (setting [10]) stood at 50 mg/kg-day. Moreover, the LEL in the series on Rattus norvegicus [6] (duration: 1 days, dermal) stood at 0.125 mg/L; with Rattus norvegicus [6] (duration: 3 days, oral, diet), 0.001 mg/kg-day; with Rattus norvegicus [6] (duration: 4 days, oral), 0.03 mg/kg-day; in the series with Rattus norvegicus [6] (duration: 4 days, oral, diet), 0.000342 mg/kg-day; with Rattus norvegicus [6] (duration: 21 days, oral), 0.01 mg/kg-day; in the series on Rattus norvegicus [6] (duration: 28 days, oral), 0.2 mg/kg-day. The LEL with Mus musculus [3] (duration: 0 days, oral, diet) came out at 0.0001 ppm; in the series on Mus musculus [3] (duration: 4 days, injection, subcutaneous) it was 0.002 mg/kg-day. Also, the “LEL (fractional dose of pill)” value with Mus musculus [3] (duration: 3 days, oral) turned out to be 0.001.

For `COP(=O)(NC(C)=O)SC` (stereo not drawn) [Acephate], in the series on Rattus norvegicus [1] (subchronic, duration: 13 weeks, oral, diet, Brain: Decreased cholinesterase activity), the LOAEL is 0.192 mg/kg-day. Besides, the LEL in the series with Rattus norvegicus [2] (subchronic, duration: 90 days, oral, diet, M, Inhibition of brain ChE) stood at 0.12 mg/kg-day.

In turn, `O=C([O-])c1cc(Oc2ccc(C(F)(F)F)cc2Cl)ccc1[N+](=O)[O-].[Na+]` [Acifluorfen sodium] registered an LC50 with Rattus norvegicus [5] (Inhalation, albino King (Kng:(SD)BR)) greater than 1.38 µg/mL. Further, the LD50 with Rattus norvegicus [5] (oral, CF Nelson) amounted to 122 mg/kg; with Oryctolagus sp. (occlusive, Albino) it was 1460 mg/kg. The NOAEL in the series with Rattus norvegicus [5] (developmental, duration: 14 days, oral, gavage, Crl:COBS-CD-(SD)BR) was determined as 20 mg/kg-day; with Oryctolagus sp. (developmental) it was 12 mg/kg-day; in the series on Oryctolagus sp. (reproduction developmental, F) it was 12 mg/kg-day. Besides, the LEL in the series on Rattus norvegicus [2] (setting [11]) amounted to 25 mg/kg-day. The molecule further gave an NOEL with Rattus norvegicus [2] (setting [11]) of 1.25 mg/kg-day.

For the molecule `C=CCO` [Allyl alcohol], the NOEL was 1.5 mg/kg-day in the series on Rattus norvegicus [4] (subchronic, F, Fischer 344, Hematology: Plt increase + Blood Chemistry: BUN increase25 Bile acid increase + Absolute Organ Weight: Liver increase + Relative Organ …); 3 mg/kg-day with Rattus norvegicus [4] (subchronic, M, Fischer 344, Hematology: Plt increase + Blood Chemistry: BUN increase25 Bile acid increase + Absolute Organ Weight: Liver increase + Relative Organ …); 4.8 mg/kg-day in the series on Rattus norvegicus [2] (setting [13]). Also, the LC50 is ≥ 297 mg/m3 and ≤ 333 mg/m3 with Rattus norvegicus [5] (inhalation, Long-Evans); 594 mg/m3 with Rattus norvegicus [5] (inhalation, Sherman Wistar). Besides, the LD50 with Rattus norvegicus [5] (oral, Sherman Wistar) was 64 mg/kg; in the series on Rattus norvegicus [5] (oral, gavage, Long-Evans), ≥ 99 mg/kg and ≤ 105 mg/kg; with Rattus norvegicus [5] (oral, gavage, Osborne-Mendel), 70 mg/kg; in the series on Oryctolagus sp., 89 mg/kg; in the series on Mus musculus [7], 96 mg/kg. For the same molecule, the NOAEL in the series on Rattus norvegicus [5] (chronic, duration: 15 weeks, oral, drinking water, Wistar) worked out at 11.2 mg/kg-day; in the series on Rattus norvegicus [5] (setting [12]), 47.5 mg/m3. For the same molecule, the results for the LOAEL in the series on Rattus norvegicus [5] (setting [12]) and in the series on Rattus norvegicus [2] (setting [13]) were 95 mg/m3 and 6.9 mg/kg-day, respectively.

As for `O=C(OCc1ccccc1)c1ccc(O)cc1` [Benzyl 4-hydroxybenzoate], the LEL with Rattus norvegicus [6] (duration: 3 days, oral) came out at 0.16 mg/kg-day; in the series on Mus musculus [3] (duration: 3 days, dermal), 100 mg/day.

`COc1ccc(-c2coc3cc(O)cc(O)c3c2=O)cc1` [Biochanin A]: the LEL in the series with Mus musculus [3] (duration: 4 days, oral, diet) was 2.5 mg/day.

Turning to `COP(=S)(OC)Oc1cc(Cl)c(Br)cc1Cl` [Bromofos], in the series on Rattus norvegicus [1] (reproduction developmental, oral, diet, Blood: Decreased cholinesterase activity + Liver: Decreased cholinesterase activity), the NOAEL worked out at 5 mg/kg-day.

With `ClC1=C(Cl)[C@]2(Cl)C3C(Cl)C(Cl)CC3[C@@]1(Cl)C2(Cl)Cl` (stereo partly drawn) [Chlordane], the NOEL in the series on Rattus norvegicus [1] (chronic, duration: 130 weeks, oral, diet, Liver: Hypertrophy) worked out at 0.055 mg/kg-day.

Take `C=CC(=C)Cl` [Chloroprene]: the no observed adverse effect level (NOAEL) in the series with Rattus norvegicus [1] (chronic, duration: 2 years, inhalation, intermittent, Hair: Alopecia + Whole body: Decreased weight gain) amounted to 36.2 mg/m3; with Rattus norvegicus [1] (subchronic, duration: 90 days, inhalation, Olfactory epithelium: Degeneration), 116 mg/m3.
